From US20260248767A1, “METHODS FOR INDUCING FERROPTOSIS IN CANCER” (Board of Regents, The University of Texas System, priority 2023, published 2026)
“Also recorded” adds a separate entry of the source.

Legend:
[1] = test system: HT-1080 cells; assay: Cell death assay (PI flow cytometry), HT-1080 cells incl. knockout lines; conditions: for cell death in combination with RSL3: combined with RSL3, compared to RSL3 alone; for cell death in combination with FIN56: combined with ferroptosis inducer FIN56; for cell death in combination with ML-162: combined with ferroptosis inducer ML-162; for cell death over various concentrations of RSL3: combined with various concentrations of RSL3; for cell death in SHMT2 knockout cells: ferroptosis inducer in SHMT2 knockout cells; for rescue of RSL3 plus sulfite induced cell death or decrease in cell viability: cell death inhibitors added to RSL3 plus sulfite; for cell death in MTHFD2 knockout cells: ferroptosis inducer in MTHFD2 knockout HT-1080 cells; for cell death in combination with JKE-1674: combined with ferroptosis inducer JKE-1674 (JKE)
Protocol: Initially, the effect of sulfite on ferroptosis was studied. […] Each group was treated with vehicle alone or with sulfite.
The knockout cells were identified by immunoblotting.
Briefly, cells were seeded in 12-well plates and incubated overnight. After treatment, cells were trypsinized and collected. After washing with cold phosphate-buffered saline (PBS), the cells were stained with 2 μg/mL propidium iodide (PI) in cold PBS. […] All experiments were performed in triplicates.

[2] = test system: HT-1080 cells; assay: Lipid peroxidation measurement (C11-BODIPY 581/591, flow cytometry); format: cell-based, human; conditions: for relative lipid peroxidation level in combination with RSL3: combined with RSL3, compared to RSL3 alone
Protocol: Cells were seeded on 12-well plates and incubated overnight. After treating with compounds for indicated time, cells were incubated in media containing 5 μM C11-BODIPY 581/591 (Invitrogen) for 30 min at 37° C. Then cells were trypsinized and collected. […] All experiments were performed in triplicates.

[3] = test system: HT-1080 cells; assay: Relative mitochondrial lipid peroxidation level; format: cell-based, human; conditions: for relative mitochondrial lipid peroxidation level in combination with RSL3: combined with RSL3, compared to RSL3 alone
[4] = test system: HT-1080, 786-O, U87, T98G, RCC4, H1299, A549, Hela and Hs578T; assay: Cell death assay (PI flow cytometry), panel of cancer cell lines; format: cell-based, human; conditions: for enhancement of ferroptosis induced by RSL3: panel of cell lines tested
Protocol: All cell lines used in this study were free of mycoplasma contamination (per testing done by the vendor). All the cells were cultured in a 37° C. incubator in a 5% CO2 atmosphere. H1299 cells were cultured in RPMI-1640 medium supplemented with 10% fetal bovine serum and 10,000 U/mL penicillin-streptomycin. HT-1080, 786-O, U87, T98G, RCC4, A549, Hela and Hs578T cells were cultured in Dulbecco modified Eagle medium (DMEM) supplemented with 10% fetal bovine serum and 10,000 U/mL of penicillin-streptomycin.
After treatment, cells were trypsinized and collected. […] All experiments were performed in triplicates.

[5] = test system: LKR-13 tumor; assay: LKR-13 tumor growth in 129/Sv mouse model; format: in vivo
Text: The assessment of ferroptosis function on the growth of either cell-derived or patient-derived xenografts is typically conducted in immunodeficient mice, such as nude mice or NSG mice. However, for applications in clinical settings, it becomes important to evaluate ferroptosis function in immunocompetent mice. To gain a more comprehensive understanding of the role of SHMT2 inhibition in combination with ferroptosis in cancer treatment, the investigations were extended to LKR13, a mouse cell line, both in vitro and in vivo. Initially, it was confirmed that sertraline promotes JKE-1674-induced ferroptosis in vitro (FIG. 11J-11K). Subsequently, the effects of sertraline, JKE-1674, and their combination were examined on a LKR-13 tumor growth in a 129/Sv mouse model.

[6] = test system: HT-1080-derived xenografts; assay: HT-1080-derived xenograft in nude mice; format: in vivo; conditions: for growth of HT-1080-derived xenografts (tumor volume): nude mice
Text: To assess the in vivo impact of the combination of SHMT inhibition and GPX4 inhibition, the SHMT inhibitor sertraline was utilized, an FDA-approved drug, and the GPX4 inhibitor JKE-1674 for both in vitro and in vivo cell treatments. The data reveal that both SHIN2 and sertraline sensitize cancer cells to JKE-1674-induced ferroptosis (FIG. 11A-11B). […] Additionally, liproxstain-1 reversed the 4-HNE staining score back to levels similar to the vehicle control (FIG. 11F-I).

[7] = test system: HT-1080 cells; assay: Cell viability assay (CCK-8); format: cell-based, human
Protocol: Cell viability was measured using a Cell Counting Kit-8 (CCK-8, Dojindo) as previously described (Koppula, P., et al. J Biol Chem 292, 14240-14249, doi: 10.1074/jbc.M117.798405 (2017); Liu, X. et al. Nat Cell Biol 18, 431-442, doi: 10.1038/ncb3328 (2016)). In brief, cells were seeded onto 96-well plates at a density of 1×10^4 per well. The next day, cells were treated with indicated compound for 16-20 h. Subsequently, cells were changed to new 100 μl medium containing 10 μl CCK-8 reagent for 1 h at 37° C., 5% CO2 in incubator. The absorbance at 450 nm was determined using a FLUOstar Omega microplate reader (BMG Labtech).

[8] = test system: NADP+/NADPH; assay: NADP+ and NADPH measurement; format: cell-based; conditions: treated vs untreated cells
[9] = test system: LKR13, a mouse cell line; assay: Cell death of LKR-13 cells in vitro; format: cell-based; conditions: 24 hrs
Protocol: Cell death was measured and analyzed using flow cytometry as described previously (Zhang, Y., et al. Cell Cycle 18, 773-783, doi: 10.1080/15384101.2019.1597506 (2019); Koppula, P. et al. Nature communications 13, 2206, doi: 10.1038/s41467-022-29905-1 (2022)). Briefly, cells were seeded in 12-well plates and incubated overnight. After treatment, cells were trypsinized and collected. After washing with cold phosphate-buffered saline (PBS), the cells were stained with 2 μg/mL propidium iodide (PI) in cold PBS. The fraction of dead cells (PI-positive cells) was measured using a Attune Flow Cytometer (ThermoFisher) and analyzed by FlowJo 10 software (Lin, A. et al. Oncogene 33, 3183-3194, doi: 10.1038/one.2013.273 (2014); Liu, X. & Gan, B. et al. Cell Cycle 15, 3471-3481, doi: 10.1080/15384101.2016.1249545 (2016)). All experiments were performed in triplicates.

[10] = RSL3 treated SUOX knockout cells
[11] = HT-1080 tumors, immunochemistry

NC(=O)c1ccc(N)nc1 [6-AN, 6-Aminonicotinamide]
cell death in combination with RSL3 [1]: enhanced the cell death
cell death induced by the agent on its own ([1]; without RSL3): did not induce cell death on its own

Nc1nc2ccn(CCCCc3ccc(C(=O)N[C@@H](CCC(=O)O)C(=O)O)c(F)c3)c2c(=O)[nH]1 [AGF347]
cell death in combination with RSL3 [1]: increase cell death
cell death in combination with FIN56 [1]: also observed; also recorded: increase cell death
cell death in combination with ML-162 [1]: also observed; also recorded: increase cell death
cell death over various concentrations of RSL3 [1]: enhance cell death
relative lipid peroxidation level in combination with RSL3 [2]: increased lipid peroxidation levels; also recorded: increase lipid peroxidation
relative mitochondrial lipid peroxidation level in combination with RSL3 [3]: increased relative mitochondrial lipid peroxidation level; also recorded: increase mitochondrial lipid peroxidation

O=S(=O)(NC1CCCCC1)c1ccc2c(c1)C(=NO)c1cc(S(=O)(=O)NC3CCCCC3)ccc1-2 [FIN56]
cell death in SHMT2 knockout cells [1]: induced cell death and or decrease viability

CCOC(=O)c1ccc(NC2CCCCC2)c(N)c1 [Fer-1, Ferrostatin-1]
rescue of the impact of SUOX knockout on RSL3 cell death ([1]; Fer-1 and RSL3, SUOX knockout HT-1080 cells): rescued
cell death of RSL3 and 6-AN combination when combined with Ferr-1 ([1]; RSL3 + 6-AN + Ferr-1): did not induce cell death
SHMT2 knockout increase of RSL3 mediated cell death when combined with Fer-1 ([1]; RSL3 + Fer-1, SHMT2 knockout cells): not observed
rescue of RSL3 plus sulfite induced cell death or decrease in cell viability [1]: rescued
rescue of ferroptosis induced by the combination of RSL3 and sulfite ([4]; Fer-1 5 μm): could be rescued

O=C(/C(C[N+](=O)[O-])=N/O)N1CCN(C(c2ccc(Cl)cc2)c2ccc(Cl)cc2)CC1 [JKE-1674]
cell death in MTHFD2 knockout cells [1]: significantly increase
cell death in SHMT2 knockout cells [1]: induced cell death and or decrease viability
LKR13 tumor graft growth [5]: did not impact
growth of HT-1080-derived xenografts (tumor volume) [6]: no discernible effect

COc1ccc(N(C(=O)CCl)C(C(=O)NCCc2ccccc2)c2cccs2)cc1Cl (stereo not drawn) [ML-162]
cell death in MTHFD2 knockout cells [1]: significantly increase
cell death in SHMT2 knockout cells [1]: induced cell death and or decrease viability

COC(=O)c1ccc([C@H]2c3[nH]c4ccccc4c3C[C@H](C(=O)OC)N2C(=O)CCl)cc1 [RSL3]
cell death in SUOX knockout cells vs sg control cells ([1]; SUOX knockout HT-1080 cells): Greater cell death
cell death in MTHFD2 knockout cells [1]: significantly increase
cell death in SHMT2 knockout cells [1]: increased
cell viability in SHMT2 knockout cells ([7]; varying concentrations of RSL3, SHMT2 knockout): reduced
relative lipid peroxidation level % in SUOX knockout cells [2, 10]: mirrored
lipid peroxidation level in SHMT2 knock out cells ([2]; upon RSL3 treatment): increased lipid peroxidation level
relative mitochondrial lipid peroxidation level % in SUOX knockout cells [3, 10]: mirrored
mitochondrial lipid peroxidation level in SHMT2 knock out cells ([3]; upon RSL3 treatment): increased mitochondrial lipid peroxidation level

N[C@@H](CSS(=O)(=O)O)C(=O)O [S-sulfocysteine]
cell death in combination with RSL3 [1]: sensitized
cell death in combination with FIN56 [1]: sensitized
cell death in combination with JKE-1674 [1]: sensitized
cell death in combination with ML-162 [1]: sensitized
cell death in combination with ML-210 ([1]; combined with ferroptosis inducer ML-210): sensitized
cell viability when combined with different concentrations of RSL3 ([7]; combined with RSL3, range of concentrations): sensitized
relative lipid peroxidation level in combination with FIN56 ([2]; combined with FIN56): increased
relative lipid peroxidation level in combination with RSL3 [2]: increased

Cc1n[nH]c2c1[C@](c1cc(CO)cc(-c3ccccc3)c1)(C(C)C)C(C#N)=C(N)O2 [SHIN1]
cell death in combination with RSL3 [1]: increase cell death
cell death in combination with FIN56 [1]: also observed; also recorded: increase cell death
cell death in combination with ML-162 [1]: also observed; also recorded: increase cell death
cell death over various concentrations of RSL3 [1]: enhance cell death
enhancement of ferroptosis induced by RSL3 [4]: enhance ferroptosis
NADP+/NADPH ratio [8]: higher
relative lipid peroxidation level in combination with RSL3 [2]: increased lipid peroxidation levels; also recorded: increase lipid peroxidation
relative mitochondrial lipid peroxidation level in combination with RSL3 [3]: increased relative mitochondrial lipid peroxidation level; also recorded: increase mitochondrial lipid peroxidation

Cc1n[nH]c2c1[C@](c1cc(C#CCCCO)cc(CO)c1)(C(C)C)C(C#N)=C(N)O2 [SHIN2]
cell death in combination with RSL3 [1]: increase cell death
cell death in combination with FIN56 [1]: also observed; also recorded: increase cell death
cell death in combination with JKE-1674 [1]: enhance cell death; also recorded: sensitize
cell death in combination with ML-162 [1]: also observed; also recorded: increase cell death
cell death over various concentrations of RSL3 [1]: enhance cell death
enhancement of ferroptosis induced by RSL3 [4]: enhance ferroptosis
NADP+/NADPH ratio [8]: higher
relative lipid peroxidation level in combination with RSL3 [2]: increased lipid peroxidation levels; also recorded: increase lipid peroxidation
relative mitochondrial lipid peroxidation level in combination with RSL3 [3]: increased relative mitochondrial lipid peroxidation level; also recorded: increase mitochondrial lipid peroxidation

O=S(=O)([O-])[O-].[Na+].[Na+] [Sulfate, Sodium sulfate]
cell death in combination with RSL3 [1]: did not synergistically increase

Clc1cccc(CN=C2Nc3ccccc3NC23CCNCC3)c1 [liproxstain-1, Liproxstatin-1]
rescue of RSL3 plus sulfite induced cell death or decrease in cell viability [1]: rescued
4-HNE staining score when added to JKE-1674+sertraline ([6]; HT-1080 tumors, JKE-1674+sertraline+Lip-1): reversed

CN[C@H]1CC[C@@H](c2ccc(Cl)c(Cl)c2)c2ccccc21 [sertraline]
cell death in combination with RSL3 [1]: significantly increase
cell death in combination with JKE-1674 [1]: enhance cell death; also recorded: sensitize
cell death in combination with ML-162 [1]: significantly enhance
cell death over various concentrations of RSL3 [1]: enhance cell death
JKE-1674-induced ferroptosis in vitro [9]: promotes
relative lipid peroxidation level in combination with RSL3 [2]: significantly increase
LKR13 tumor graft growth [5]: did not impact
relative mitochondrial lipid peroxidation level in combination with RSL3 [3]: significantly increase
staining for Ki-67 in tumors [6, 11]: did not alter staining
staining for cleaved caspase-3 in tumors [6, 11]: did not alter staining
growth of HT-1080-derived xenografts (tumor volume) [6]: no discernible effect

O=S(O)(O)=S [thiosulfate, Sodium Thiosulfate]
cell death as observed visually ([1]; 0.5 mM, cancer cells, presence or absence of RSL3): to a very small extent
cell death in combination with RSL3 [1]: significantly more than the cell death observed with vehicle control upon treatment with RSL3, but less than the cell death observed with sulfite
